US20090105283A1, “3-HYDROQUINAZOLIN-4-ONE DERIVATIVES FOR USE AS STEAROYL CoA DESATURASE INHIBITORS” (priority 2007, published 2009)
Where “and” joins values, the source holds several entries; their conditions need not be identical. Equal entries are not always repeated.

Target: T1, stearoyl-CoA desaturase (SCD) (Rattus norvegicus, UniProt P07308)
T1 construct: The microsomes were quickly thawed and added to assay buffer so that a concentration of 0.4 mg/ml was achieved; from tissue
T1 sequence (P07308 1-358): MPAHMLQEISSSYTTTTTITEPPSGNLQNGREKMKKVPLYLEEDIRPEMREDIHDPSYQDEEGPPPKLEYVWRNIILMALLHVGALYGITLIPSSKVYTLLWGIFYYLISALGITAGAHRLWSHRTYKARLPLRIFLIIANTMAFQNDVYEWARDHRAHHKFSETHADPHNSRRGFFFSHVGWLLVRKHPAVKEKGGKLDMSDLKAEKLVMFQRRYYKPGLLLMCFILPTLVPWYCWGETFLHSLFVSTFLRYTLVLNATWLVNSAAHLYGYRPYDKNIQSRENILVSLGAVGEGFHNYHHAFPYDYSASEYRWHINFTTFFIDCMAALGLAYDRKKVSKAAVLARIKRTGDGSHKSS
Experiment: SCD assay with rat liver microsomes ([3H]stearoyl CoA, adapted from Talamo and Bloch)
Format: biochemical
Conditions: Table 1; rat liver microsomes 0.2 mg/ml assay final, [3H]stearoyl CoA substrate, 30 min preincubation, 45 min reaction, room temperature
How it was run: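 Liver microsomes came from diet-induced male Sprague Dawley rats and were used at 0.2 mg/ml final. Assay buffer was Tris pH 7.2 with NADH, ATP, CoA, MgCl2 and 0.1% BSA. Compounds were preincubated 30 min, then reacted 45 min at room temperature with [3H]stearoyl-CoA; after TCA stop and Bio-Bead cleanup, supernatant radioactivity was counted by scintillation.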

Compound | IC50
COc1ccccc1OCC(=O)Nc1ccc2ncn(Cc3ccc(Cl)c(Cl)c3)c(=O)c2c1 [XXV, N-{3-[(3,4-dichlorophenyl)methyl]-4-oxo(3-hydroquinazolin-6-yl)}-2-(2-methoxyphenoxy)acetamide] | 780 nM
O=C(Nc1ccc2ncn(Cc3ccc4sccc4c3)c(=O)c2c1)OCc1ccccc1 [XLV, N-[3-(benzo[b]thiophen-5-ylmethyl)-4-oxo(3-hydroquinazolin-6-yl)](phenylmethoxy)carboxamide] | 860 nM
O=C(CCc1ccccc1)Nc1ccc2ncn(Cc3ccc(Cl)c(Cl)c3)c(=O)c2c1 [II, N-{3-[(3,4-dichlorophenyl)methyl]-4-oxo(3-hydroquinazolin-6-yl)}-3-phenylpropanamide] | 2410 nM
Cc1nc2ccc(NC(=O)OCc3ccccc3)cc2c(=O)n1Cc1ccc(Cl)c(Cl)c1 [VI, N-{3-[(3,4-dichlorophenyl)methyl]-2-methyl-4-oxo(3-hydroquinazolin-6-yl)}(phenylmethoxy)carboxamide] | 20000 nM
Cc1cccc(C)c1OCC(=O)Nc1ccc2ncn(Cc3ccc(Cl)c(Cl)c3)c(=O)c2c1 [XXI, N-{3-[(3,4-dichlorophenyl)methyl]-4-oxo(3-hydroquinazolin-6-yl)}-2-(2,6-dimethylphenoxy)acetamide] | 3450 nM
CC(=O)NCC(=O)Nc1ccc2ncn(Cc3ccc(Cl)c(Cl)c3)c(=O)c2c1 [XIX, 2-(acetylamino)-N-{3-[(3,4-dichlorophenyl)methyl]-4-oxo(3-hydroquinazolin-6-yl)}acetamide] | 11700 nM
O=C(COc1ccccc1)Nc1ccc2ncn(Cc3ccc(Cl)c(F)c3)c(=O)c2c1 [XXXIX, N-{3-[(4-chloro-3-fluorophenyl)methyl]-4-oxo(3-hydroquinazolin-6-yl)}-2-phenoxyacetamide] | 6100 nM
O=C(COc1ccccc1)Nc1ccc2ncn(Cc3ccc(Cl)c(Cl)c3)c(=O)c2c1 [XV, N-{3-[(3,4-dichlorophenyl)methyl]-4-oxo(3-hydroquinazolin-6-yl)}-2-phenoxyacetamide] | 220 nM
O=C(COc1cccc(Cl)c1Cl)Nc1ccc2ncn(Cc3ccc(Cl)c(Cl)c3)c(=O)c2c1 [XXX, N-{3-[(3,4-dichlorophenyl)methyl]-4-oxo(3-hydroquinazolin-6-yl)}-2-(2,3-dichlorophenoxy)acetamide] | 3780 nM
O=C(CO)Nc1ccc2c(=O)n(Cc3ccc(F)c(Cl)c3)cnc2c1 [LXXXVII, N-{3-[(3-chloro-4-fluorophenyl)methyl]-4-oxo(3-hydroquinazolin-7-yl)}-2-hydroxyacetamide] | 2320 nM and 2230 nM
O=C(COc1ccccc1F)Nc1ccc2ncn(Cc3ccc(Cl)c(Cl)c3)c(=O)c2c1 [XXVI, N-{3-[(3,4-dichlorophenyl)methyl]-4-oxo(3-hydroquinazolin-6-yl)}-2-(2-fluorophenoxy)acetamide] | 3690 nM
CC(Oc1ccccc1Cl)C(=O)Nc1ccc2ncn(Cc3ccc(Cl)c(Cl)c3)c(=O)c2c1 (centres unmarked) [XXXIV, N-{3-[(3,4-dichlorophenyl)methyl]-4-oxo(3-hydroquinazolin-6-yl)}-2-(2-chlorophenoxy)propanamide] | 2100 nM
O=C(COc1cccc(F)c1)Nc1ccc2ncn(Cc3ccc(Cl)c(Cl)c3)c(=O)c2c1 [XXVII, N-{3-[(3,4-dichlorophenyl)methyl]-4-oxo(3-hydroquinazolin-6-yl)}-2-(3-fluorophenoxy)acetamide] | 2010 nM
CCOC(=O)COC(=O)Nc1ccc2c(=O)n(Cc3ccc(Cl)c(Cl)c3)cnc2c1 [XCI, ethyl 2-(N-{3-[(3,4-dichlorophenyl)methyl]-4-oxo-3-hydroquinazolin-7-yl}carbamoyloxy)acetate] | 3770 nM
O=C(COc1ccc(F)cc1)Nc1ccc2ncn(Cc3ccc(Cl)c(Cl)c3)c(=O)c2c1 [XVIII, N-{3-[(3,4-dichlorophenyl)methyl]-4-oxo(3-hydroquinazolin-6-yl)}-2-(4-fluorophenoxy)acetamide] | 2100 nM

Same assay, conditions: Table 2 (Example 21, procedures of Example 20); rat liver microsomes, [3H]stearoyl CoA substrate

Compound | IC50 [nM]
Cc1ccc(Cn2cnc3ccc(NC(=O)OCc4ccccc4)cc3c2=O)cc1C [compound 20, benzyl 3-(3,4-dimethylbenzyl)-4-oxo-3,4-dihydroquinazolin-6-ylcarbamate] | 230
O=C(Nc1ccc2ncn(Cc3cccc(C(F)(F)F)c3)c(=O)c2c1)OCc1ccccc1 [compound 40, benzyl 4-oxo-3-(3-(trifluoromethyl)benzyl)-3,4-dihydroquinazolin-6-ylcarbamate] | 1400
N#Cc1ccccc1OCCCn1cnc2ccc(NC(=O)OCc3ccccc3)cc2c1=O [compound 49, benzyl 3-(3-(2-cyanophenoxy)propyl)-4-oxo-3,4-dihydroquinazolin-6-ylcarbamate] | 480
Cc1nc2cc(NC(=O)OCc3ccccc3)ccc2c(=O)n1Cc1ccc(Cl)c(Cl)c1 [compound 8, benzyl 3-(3,4-dichlorobenzyl)-2-methyl-4-oxo-3,4-dihydroquinazolin-7-ylcarbamate] | 1200
O=C(CO)Nc1ccc2ncn(Cc3cccc(COc4cc(Cl)ccc4Cl)c3)c(=O)c2c1 [compound 61, N-(3-(3-((2,5-dichlorophenoxy)methyl)benzyl)-4-oxo-3,4-dihydroquinazolin-6-yl)-2-hydroxyacetamide] | 490
COCCNC(=O)c1ccc2c(=O)n(Cc3ccc(Cl)c(Cl)c3)cnc2c1 [compound 83, 3-(3,4-dichlorobenzyl)-N-(2-methoxyethyl)-4-oxo-3,4-dihydroquinazoline-7-carboxamide] | 580
O=C(NCCO)c1ccc2c(=O)n(Cc3ccc(Cl)cc3)cnc2c1 [compound 92, 3-(4-chlorobenzyl)-N-(2-hydroxyethyl)-4-oxo-3,4-dihydroquinazoline-7-carboxamide] | 1000
O=C(CO)Nc1ccc2ncn(CCOc3ccccc3Cl)c(=O)c2c1 [compound 58, N-(3-(2-(2-chlorophenoxy)ethyl)-4-oxo-3,4-dihydroquinazolin-6-yl)-2-hydroxyacetamide] | 340
O=C(Nc1ccc2ncn(CCCOc3ccccc3F)c(=O)c2c1)OCc1ccccc1 [compound 46, benzyl 3-(3-(2-fluorophenoxy)propyl)-4-oxo-3,4-dihydroquinazolin-6-ylcarbamate] | 490
O=C(Nc1cnc2ncn(Cc3ccc(Cl)c(Cl)c3)c(=O)c2c1)OCc1ccccc1 [compound 77, benzyl 3-(3,4-dichlorobenzyl)-4-oxo-3,4-dihydropyrido[2,3-d]pyrimidin-6-ylcarbamate] | 360
O=C(Nc1ccc2ncn(CCCCOc3cc(Cl)ccc3Cl)c(=O)c2c1)OCc1ccccc1 [compound 54, benzyl 3-(4-(2,5-dichlorophenoxy)butyl)-4-oxo-3,4-dihydroquinazolin-6-ylcarbamate] | 150
O=C(Nc1ccc2ncn(Cc3ccc(Cl)c(Cl)c3)c(=O)c2c1)C(O)CO (centres unmarked) [compound 106, N-(3-(3,4-dichlorobenzyl)-4-oxo-3,4-dihydroquinazolin-6-yl)-2,3-dihydroxypropanamide] | 3900
O=C(O)C(=O)Nc1ccc2ncn(Cc3ccc(Cl)c(Cl)c3)c(=O)c2c1 [compound 107, 2-(3-(3,4-dichlorobenzyl)-4-oxo-3,4-dihydroquinazolin-6-ylamino)-2-oxoacetic acid] | 890
CC(=O)OCC(=O)Nc1ccc2ncn(CCCOc3ccccc3F)c(=O)c2c1 [compound 47, 2-(3-(3-(2-fluorophenoxy)propyl)-4-oxo-3,4-dihydroquinazolin-6-ylamino)-2-oxoethyl acetate] | 9800
